# Entries after “also recorded” stand apart in the source; their conditions may differ. Read-outs that look alike come from different tables or passages of the source.
# Key:
# [1] = system: TNF-induced hepatocyte apoptosis; test: TNF-induced hepatotoxicity in mice (serum transaminases); format: in vivo, Balb/c mice; details: for Protection from TNF-induced hepatotoxicity: Table 10, 10 mg/kg; for ALT: mouse, in vivo
# Procedure: In this example the concept that a protease inhibitor such as DK120 may attenuate inappropriate apoptosis that causes tissue damage in systemic inflammatory response syndrome (SIRS) was tested. TNF-induced hepatocyte apoptosis in mice was performed as described by Leist et al. ((1995) J. Immunol. 154:1778-1786). Briefly, Balb/c mice were injected ip with […] murine TNF combined with […] Actinomycin D/mouse. Twelve h later, mice were anesthetized and bled from the heart to measure serum transaminase levels, which are standard clinically used indicators of liver damage. Mice that were treated with protease inhibitors were injected ip with these compounds 30 min. prior to TNF. Alanine aminotransferase (ALT) and aspartate aminotransferase (AST) were assayed using a commercially available kit (Sigma). […] However, treatment with DK120 caused a doss-dependent decrease in serum transaminase levels. […] However, a drug that nonspecifically blocks all apoptotic pathways that normally function to maintain homeostasis may not be clinically desirable. Subsequent studies were performed to determine if DK120 could also suppress hepatocyte apoptosis in response to a different stimulus.
# ^1 Mice (2 for each treatment) were injected ip +/- DK120 30 min prio
# to TNF and Actinomycin D. Twelve h later serum transaminase levels were
# (§1) To further explore the specificity of DK120 attenuation of TNF-induced hepatotoxicity, several compounds were tested that were found previously not to inhibit apoptotic protease proteolytic activity as measured against a synthetic substrate (data not shown). […] Therefore, the protection mediated by DK120 is not a property of any boron-containing molecule.
# ^1 Mice (3 for each treatment) were injected ip +/- the inhibitors 30
# min prior to TNF and Actinomycin D. Twelve h later serum transaminase
# apoptotic protease [2] = test: Inhibition of apoptotic protease proteolytic activity against a synthetic substrate; format: biochemical, human; details: data not shown
# Procedure: Proteolytic activity was assayed using synthetic substrates selective for different known proteases. All assays were set up by adding 0.02 ml of sample (or known enzyme as a positive control) plus 0.18 ml of appropriate substrate dissolved in PBS PH 7.5 in triplicate in flat bottom microtiter plates, incubated for the indicated length of time at room temperature, and the OD at 405 nm measured using a plate reader.
# Elastase-like activity was measured using N-methoxysuccinyl-ala-ala-pro-valp-nitroanilide (SEQ ID NO: 3) (MAAPV) at 0.25 mM as a substrate. For convenience and maximum sensitivity, these assays were routinely incubated 20 h to monitor protease purification. Under these conditions, the elastase dose response was linear up to a concentration of 6.0 μg/ml (OD of 1.0), see FIG. 3C. […] In order to quantitate the activity of the purified protease, identical assays were set up but kinetic readings of OD were taken every hour from 1-6 h. One unit of enzyme was calculated as the amount of enzyme that hydrolyzes 1.0 nmol substrate/h.
# as §1
# isolated U937 nuclei = test: DNA fragmentation assay using isolated U937 nuclei; format: cell-based, human
# Procedure: U937 cells were labeled with ^3 H-thymidine by culturing overnight with isotope at 0.5 μCi/ml. The cells were pelleted, washed once, and the cytoplasmic membrane lysed by resuspending the cells in assay buffer (50 mM Tris, 250 mM sucrose 10 mM MgSO4, pH 7.5) plus 0.02% NP-40. Nuclei were then pelleted and resuspended in assay buffer at 1×10^6 /ml. The assay was set up in triplicate in flat bottom microtiter plates under sterile conditions. Nuclei (0.05 ml) were mixed with 0.05 ml of sample diluted in 50 mM Tris pH 7.5 or buffer alone to determine total counts. Plates were incubated for 5 h at 37° C. and then harvested by the addition of 0.1 ml of harvesting buffer (10 mM Tris, 10 mM EDTA, 0.3% Triton X-100, pH 7.5). Plates were harvested by filtration onto glass fiber paper and counted on a Packard Matrix 96 beta counter. Percent DNA fragmentation was calculated as follows: […]
# BT-20 = format: cell-based, human; details: for % DNA fragmentation: BT-20, UV 0.5 J/cm^2, 8 h, no inhibitor 44 ± 3.6
# [3] = system: chymotrypsin-like enzymes; details: cited from earlier work
# HL-60 = test: Inhibition of UV-induced DNA fragmentation in HL-60 cells; format: cell-based, human; details: UV 0.2 J/cm^2, 2 h, no inhibitor 49 ± 2.0
# Procedure: (§2) To determine if these findings were unique to U937 or if other cell lines also require protease activity to undergo apoptosis, the effects of several inhibitors on apoptosis induced by UV light in the human mammary carcinoma, BT-20, the murine fibroblast cell line, 3T3, and the human myeloid leukemia, HL-60 were tested. For the BT-20 and 3T3 cells, target cells were pretreated for one hour (with or without inhibitors as indicated in the table) and exposed to UV light at 0.5 J/cm^2 and then incubated for eight hours prior to assessing DNA fragmentation. HL-60 cells were pretreated for one hour (with or without inhibitors as indicated in the table) and exposed to UV at 0.2 J/cm^2 and then incubated for two hours prior to assessing DNA fragmentation.
# DNA fragmentation assays were carried out according to the protocol of Wright S. C., et al. (1,992) J. Cell. Biochem. 48, 344-355. Target cells were labeled with ^3 H-thymidine and plated in triplicate in flat bottom microtiter plates. Cells were incubated for the indicated length of time for each experiment in the presence of TNF or various inhibitors. In some experiments, cells were treated with UV light at 245 nm using a UV Crosslinker (Fisher Scientific). Assays were harvested and counted on a Packard matrix 96 beta counter. Percent DNA fragmentation was calculated as for the nuclear assay described in Example 3. […]
# HL-60 cells = details: Bruno et al. 1992; cited from earlier work
# 3T3 = test: Inhibition of UV-induced DNA fragmentation in 3T3 cells; format: cell-based, murine; details: UV 0.5 J/cm^2, 8 h, no inhibitor 38 ± 1.9
# Procedure: as §2
# DNA fragmentation assays were carried out according to the protocol of Wright S. C., et al. (1,992) J. Cell. Biochem. 48, 344-355. Target cells were labeled with ^3 H-thymidine and plated in triplicate in flat bottom microtiter plates. Cells were incubated for the indicated length of time for each experiment in the presence of TNF or various inhibitors. In some experiments, cells were treated with UV light at 245 nm using a UV Crosslinker (Fisher Scientific). Assays were harvested and counted on a Packard matrix 96 beta counter. Percent DNA fragmentation was calculated as for the nuclear assay described in Example 3. In assays to test the effects of various inhibitors, the pH of extra wells containing assay buffer, target cells, and each inhibitor was always checked at the beginning and end of each assay to assure that the pH remained at 7.5.
# U937 cells [4] = test: Visualization of DNA fragmentation in U937 cells by agarose gel electrophoresis; format: cell-based, human
# Procedure: In FIG. 2, U937 cells were pretreated with and without TPCK 10 μM for 30 min, exposed to UV light 0.15 J/cm^2, incubated another 2.5 h, then the DNA extracted and analyzed by agarose gel electrophoresis. Lane 1 of FIG. 2 contains molecular weight markers, lane 2 contains untreated U937, lane 3 contains U937 treated with TPCK, lane 4 contains U937 treated with UV light, lane 5 contains U937 treated with TPCK and UV light.
# DNA fragmentation was carried out according to the procedure of Example 2. After the desired treatments, the cells were lysed and debris was removed by centrifugation at 13,000×g for 10 sec. DNA in the supernatant was ethanol precipitated after phenol extraction. Equivalent amounts of material from a fixed number of cells were loaded and electrophoresed on a 1.0% agarose slab gel. DNA was visualized by ethidium bromide staining.
# U937 cells [5] = test: cells; format: cell-based, human; details: for Effect on DNA fragmentation induced by TNF or UV light: result in words
# [6] = Binding to DK120 affinity column; details: eluted with 0.1 M HCl
# [7] = Chymotrypsin-like activity on SAAPP substrate; format: biochemical; details: eluted from DK120 column
# Procedure: To purify the apoptotic protease, a DK120 affinity column was prepared.
# To measure chymotrypsin-like activity, N-succinyl-ala-ala-pro-phe p-nitroanilide (SEQ ID NO: 2) (SAAPP) at 0.1 mM was used as the substrate. Trypsin-like activity was measured using N-α-benzyloxycarbonyl-L-lysine thiobenzyl ester (BLT) at 0.2 mM plus 0.11 mM […].
# U937 cells [8] = details: cited from earlier work
# apoptotic protease [9] = details: unspecified protease; cited from earlier work
# [10] = Poe et al. 1991; cited from earlier work
compound,measurement,setting,value
Aprotinin,Protection from TNF-induced hepatotoxicity,[1],neither of these inhibitors had much effect on ALT levels
same,ALT,[1],346 +/- 14 U/ml
same,Inhibition of apoptotic protease proteolytic activity,apoptotic protease [2],do not inhibit apoptotic protease
"Cc1ccc(S(=O)(=O)N[C@@H](Cc2ccccc2)C(=O)CCl)cc1 [TPCK, N-1-tosylamide-2-phenylethylchloromethyl ketone]",Inhibition of nuclear DNA fragmenting activity of protease from UV-treated cells,isolated U937 nuclei; inhibitor 50 μM (FIG. 6B),inhibited
same,% DNA fragmentation,BT-20; inhibitor 1 μM,19 ± 5.5%
same,% DNA fragmentation,BT-20; inhibitor 5 μM,0 ± 0%
same,Effect on UV-induced DNA fragmentation,"BT-20; summary of Table 2 (BT-20, 3T3, HL-60)",effectively blocked DNA fragmentation
same,Inhibition of chymotrypsin / chymotrypsin-like enzymes,[3],potent inhibitor of chymotrypsin-like enzymes
same,% DNA fragmentation,HL-60; inhibitor 1 μM,19 ± 2.0%
same,% DNA fragmentation,HL-60; inhibitor 5 μM,1 ± 2.3%
same,Effect on chemotherapeutic drug-induced apoptosis,HL-60 cells,inhibits chemotherapeutic drug-induced apoptosis
same,% DNA fragmentation,3T3; inhibitor 1 μM,32 ± 1.1%
same,% DNA fragmentation,3T3; inhibitor 5 μM,18 ± 0.8%
same,"Effect on UV light-induced DNA fragmentation, agarose gel","U937 cells [4]; TPCK 10 μM 30 min, UV 0.15 J/cm^2, 2.5 h",completely abolished UV light-induced DNA fragmentation
same,"DNA fragments on agarose gel, compound alone","U937 cells [4]; TPCK alone, no UV",no DNA fragments
same,IC50,"U937 cells [5]; Homo sapiens, U-937, read-out: IC50 (Active Concentration), TNF and UV-light induced apoptosis",2000 nM
same,Concentration of maximum suppression of DNA fragmentation,"U937 cells [5]; U937, TNF 1.0 ng/ml plus cycloheximide or UV 0.1 J/cm^2, 1 h pretreatment (FIG. 1)",2.0 µM
same,Effect on DNA fragmentation induced by TNF or UV light,U937 cells [5]; U937 cells,suppressed DNA fragmentation; also recorded: dose-dependently inhibit DNA fragmentation
chymotrypsin,DNA fragmentation in isolated nuclei by commercial proteases,isolated U937 nuclei; concentrations as high as 0.1 mg/ml (FIG. 6A),completely inactive
same,Binding to DK120 affinity matrix,[6],efficiently bound
same,Protease activity on SAAPP substrate after elution and neutralization,[7],high levels of protease activity
"CCCCCCCCCCCCCC(=O)O[C@@H]1[C@@H](C)[C@@]2(O)[C@@H](C=C(CO)C[C@]3(O)C(=O)C(C)=C[C@@H]23)[C@@H]2C(C)(C)[C@]12OC(C)=O [Phorbol myristate acetate (PMA), Phorbol myristate acetate]",Effect on apoptosis,U937 cells [8],inhibits apoptosis induced by TNF or UV light
isopropylboronic acid [IBA],Protection from TNF-induced hepatotoxicity,[1],does not protect from TNF-induced hepatotoxicity
same,ALT,[1],393 +/- 52 U/ml
same,Inhibition of apoptotic protease proteolytic activity,apoptotic protease [2],no protease inhibitory activity
same,"Inactive Compounds, Highest Concentration Tested (highest nontoxic concentration, inactive)","U937 cells [5]; U937 cells, TNF and UV light, compound inactive at this concentration",20 µM
same,Effect on DNA fragmentation induced by TNF or UV light,U937 cells [5]; U937 cells,does not inhibit DNA fragmentation
same,Protease inhibitory activity,apoptotic protease [9],non-inhibitory; also recorded: devoid of protease inhibitory activity
human granzyme B: serine protease of cytotoxic lymphocyte granules,Activity on methoxysuccinyl-ala-ala-pro-val-thiobenzyl ester,[10],inactive

# — patent publication US5952189A (priority 1997, dated 1999)
